According to PMC11224403, “Des-acyl ghrelin reduces alcohol intake and alcohol-induced reward in rodents” (Translational Psychiatry, 2024):

Legend:
[1] = tested on: male and female rats; assay: Intermittent-access alcohol drinking, acute DAG injection; format: in vivo, Rcc Han Wistar rats; conditions: for intake of alcohol, water, total fluid, food, alcohol preference, body weight: male and female rats
Description: (§1) Male and female Rcc Han Wistar rats (8–12 weeks old at arrival; Envigo, Horst, Netherlands) were used for the alcohol drinking and locomotor activity experiments as they drink alcohol to intoxicating levels. For in vivo microdialysis studies male Wistar rats (Charles River, Calco, Italy) were used as they display robust dopamine levels in NAc shell after alcohol injection. […] All rodents were allowed to habituate to the animal facility at least one week before they entered an experiment. During housing (20 °C with 50% humidity) the rodents had free access to water and standard chow (Teklad Rodent Diet; Envigo, Madison, WI, USA). These experiments were approved by the Ethics Committee for Animal Experiments (ethical numbers: 1457/18, 3276/18, 1556/18, 3348/20; Gothenburg, Sweden) and followed the ARRIVE guidelines. The sample sizes of each experiment were based on previous experience in which statistical significance has been detected. The person who conducted the experiments, and analyzed the collected data was aware of the treatment allocation. Only preset exclusion criteria were used when analyzing the data obtained in attempts to exclude confounding factors in analyzing data. In the alcohol drinking experiments leaking bottles and low alcohol consumption (<3.0 g/kg for males; <3.5 g/kg for females) were preset exclusion criteria. The preset exclusion criterion in the ex vivo HPLC-EC, ELISA, and recombinant cell line experiments was contamination of the sample. Misplaced probes, technical difficulties, and damages to the surgery area were preset exclusion criteria for the in vivo microdialysis experiment. Intra-cage male aggression was the preset exclusion criterion for the locomotor activity and CPP experiments. To minimize tentative confounding factors, the order of treatments was stratified, with treatments being mixed for each animal cage and for each apparatus used as well as balancing the alcohol intake between future treatment groups. Although each experiment only was performed once, they were separated over different laboratory days with equal data obtained between sessions.
(§2) Alcohol (95%; Solveco AB, Stockholm, Sweden) was either diluted to a 20% solution using tap water (drinking experiment) or to a 15% (w/v) solution with 0.9% NaCl. Alcohol was in the behavioral and neurochemical tests injected (intraperitoneally, IP) 5 min before the test. A dose of 1.75 g/kg was used in male mice as it causes robust locomotor stimulation and induces a CPP [37–39], and 2 g/kg was used for rats as it elevates the dopamine levels in NAc shell. DAG (Tocrise Bioscience, Bristol, UK) was dissolved in 0.9% NaCl in doses (0.25–2 mg/kg) known to reduce food intake and DAG was injected IP).
Individually housed rats had intermittent access to an alcohol (20%) bottle and a water bottle, three 24-h sessions per week, and only water bottles the remaining days. A reversed light/dark cycle was used, and the bottles were changed when the lights went out. First, the rats consumed alcohol for 10 weeks (baseline drinking), where the bottles and food were weighed daily and the body weight weekly. During treatments, the bottles and food were weighed at 4- and/or 24-h and the body weight was measured daily. In the first drinking experiment, the potential of DAG to reduce alcohol consumption was tested and therefore, vehicle or DAG (1 mg/kg) was acutely injected into male (n = 12) or female (n = 12) rats. The second drinking experiment was conducted to establish the effects of lower DAG doses on alcohol intake. Therefore, separate male (n = 18) or female (n = 18) rats, were acutely injected with lower DAG doses (0.5 or 0.25 mg/kg) or vehicle. The third alcohol drinking experiment evaluated the ability of repeated DAG injections to lower alcohol drinking. Therefore, additional male (n = 24) and female (n = 24) rats were injected with either vehicle or DAG (1 mg/kg) at three alcohol-drinking sessions. […]

[2] = tested on: male mice; assay: Conditioned place preference (rCPP, mCPP); format: in vivo, NMRI mice
Description: as §1
as §2, with “IP). […]” for “IP).”

[3] = female rats, acute DAG 1.0 mg/kg IP, n = 5 vs vehicle n = 6, 4 h
[4] = male rats, acute DAG 1.0 mg/kg IP, n = 5 vs vehicle n = 6, 4 h
[5] = male rats, acute DAG 1.0 mg/kg IP, n = 5 vs vehicle n = 6, 24 h

In the case of “des-acyl ghrelin (GSSFLSPEHQRVQQRKESKKPPAKLQPR; Ghrelin-28 non-acylated; UniProt Q9UBU3 24-51, looked up) [DAG, non-octanoylated form of ghrelin; purchased from Tocris (printed Tocrise Bioscience), dissolved in 0.9% NaCl]”, the 4-h alcohol intake [1, 3] is reported as “decreased the 4-h alcohol intake (t9 = 2.05; P = 0.0351)”, the “preference for alcohol, 4-h” value [1, 3] is reported as “reduced it at the I 4-h (t9 = 2.16; P = 0.0294)” and the 4-h food intake ([1]; female rats, acute DAG 1.0 mg/kg IP, n = 5 vs vehicle n = 6, 4 h (first statistic)) is reported as “At neither time point, DAG affected the K, L food intake (t9 = 0.34; P = 0.7414”. The 24-h alcohol intake ([1]; female rats, acute DAG 1.0 mg/kg IP, n = 5 vs vehicle n = 6, 24 h) was “did not alter the 24-h drinking (t9 = 0.22; P = 0.8331)”, the 24-h food intake ([1]; female rats, acute DAG 1.0 mg/kg IP, n = 5 vs vehicle n = 6, 24 h (second statistic)) was “At neither time point, DAG affected the K, L food intake (t9 = 0.34; P = 0.7414 and t9 = 1.12; P = 0.2909, respectively)” and the “intake of alcohol, water, total fluid, food, alcohol preference, body weight” value ([1]; acute DAG 0.25 mg/kg IP, n = 6) was “did not alter the intake of alcohol, water, total fluid, food intake alcohol preference or body weight in male or female rats”. The “intake of alcohol, water, total fluid, food, alcohol preference, body weight” value ([1]; acute DAG 0.5 mg/kg IP, n = 6 (males n = 5)) was “did not alter the intake of alcohol, water, total fluid, food intake alcohol preference or body weight in male or female rats”, the 4-h alcohol intake [1, 4] was “did not alter the A 4-h alcohol intake (t9 = 0.36; P = 0.7264)” and the 4-h food intake [1, 4] was “did not affect the E 4-h food intake (t9 = 1.51; P = 0.1657)”. The “preference for alcohol, 4-h” value [1, 4] was “did not alter the C preference for alcohol at the 4-h time point (t9 = 1.84; P = 0.0983)”, the 24-h alcohol intake [1, 5] was “reduced the alcohol intake at the 24-h time point (t9 = 2.35; P = 0.0432)” and the 24-h food intake [1, 5] was “increased the 24-h feeding (t9 = 2.64; P = 0.0271)”. The “preference for alcohol, 24-h” value [1, 5] was “decreased it at 24 h (t9 = 3.00; P = 0.0149)”, the “memory of alcohol reward (mCPP)” value ([2]; DAG 1 mg/kg at post-conditioning) was “did not reduce the memory of alcohol reward (mCPP, t14 = 1.36, P = 0.1955)” and the “reward of alcohol in conditioned place preference (rCPP)” value ([2]; DAG 1 mg/kg during conditioning with alcohol) was “attenuated the reward of alcohol in the conditioned place preference test (rCPP, t12 = 2.69, P = 0.0197)”. The rCPP per se ([2]; DAG 1 mg/kg, only vehicle control instead of alcohol) was “did not influence rCPP (t14 = 0.64, P = 0.5304) per se” and the mCPP per se ([2]; DAG 1 mg/kg, vehicle during conditioning) was “DAG did neither influence locomotor activity, rCPP, mCPP nor accumbal dopamine per se”.
